Here are results for four molecules from PMC5331433, “Ustiloxin G, a New Cyclopeptide Mycotoxin from Rice False Smut Balls” (Toxins, 2017).

Molecules are shown by their SMILES.

In assay [1] the test system is rice (Oryza sativa) seeds, radicle. As to the kind of experiment: Inhibition of radicle elongation of rice seeds. The following applies: 48 h, 25 °C, dark, mean of triplicate ± SD. The procedure:
(§1) Phytotoxicity of the compounds was evaluated by their inhibitory activities on the radicle and germ elongation of rice (Oryza sativa) seeds. Two varieties (Lijiang and Zhonghua 11) of the seeds, which were obtained from Prof. Zejian Guo (Department of Plant Pathology and collected in 2015, China Agricultural University) were used.
(§2) The bioassay was performed using the method described previously with some modifications. Briefly, five 3-day germinated rice seeds of each rice variety were sown onto each well of a 24-well plate, containing 200 μL of working solution. For preparing working solution, 1 mg of each purified compound was dissolved in 1 mL of ultrapure water to obtain the stock solution (1 mg/mL), which was further diluted to a series of concentrations (200, 100, 50, 20, and 10 μg/mL) with ultrapure water. The ultrapure water was used as the negative control, and glyphosate (N-(phosphonomethyl)glycine) at the same concentrations as the positive control. Plates were incubated in a moist chamber at 25 °C in the dark. The length of each radicle or germ was measured after treatment for 48 h. The inhibition of radicle or germ elongation was calculated as follows: Inhibition (%) = [(Lc − Lt)/Lc] × 100, where Lc is the radicle or germ length of the control group, and Lt is the length of the treated group.
(§3) All experiments were performed with three replicates, and the results were represented by their mean values and the standard deviations (SD). The data were carried out using analysis of variance (one-way ANOVA) to detect significant differences by PROC ANOVA of SAS version 8.2.

In assay [2] the test system is rice (Oryza sativa) seeds, germ. The assay can be described thus: Inhibition of germ elongation of rice seeds. The note with it: 48 h, 25 °C, dark, mean of triplicate ± SD. The procedure:
as §1, §2, §3

For assay [3], the system named is NCI-H1650. The assay can be described thus: Cytotoxicity, MTT assay, NCI-H1650. The format is cell-based, human. The following applies: non-small-cell lung carcinoma cells, 24 h treatment, absorbance 570 nm, three replicates. On the procedure: (§4) Cytotoxicity of the compounds were tested against human carcinoma cells using the microculture methyl-thiazolyl-tetrazolium (MTT) assay as described previously. Briefly, the cell lines were maintained in a humidified atmosphere containing 5% CO2 at 37 °C. For preparing working solution, 1 μmol of each purified ustiloxin was dissolved in 10 mL of ultrapure water to obtain the stock solution (100 μM), which was further diluted to a series of concentrations (50, 25, 12.5, 6.25, 3.125, 1, 0.1, 1 × 10^−2, 1 × 10^−3, 1 × 10^−4, 1 × 10^−5 μM) with ultrapure water. Normally, 200 μL of the cell suspensions (5 × 10^4 cells/mL) was plated in 96-well culture plates at 37 °C. After 12 h, 20 μL of working solution was added to each well respectively and cultured at 37 °C for 24 h. Then, MTT was dissolved in saline to 5 mg/mL, and 20 μL of this solution was added to each well. After 4 h, the medium was removed, and then 100 μL of DMSO was added to dissolve any formazan crystals formed. Absorbance was then determined at 570 nm. The cell lines of colon cancer cells (HCT-116), non-small-cell lung carcinoma cells (NCI-H1650), gastric cancer cells (BGC-823), and liver hepatocellular carcinoma cells (HepG2) were tested for all isolated compounds. In addition, lung adenocarcinoma cells (A549) were tested on ustiloxins A (2), B (3), and G (1), and melanoma cells (A375) were tested on ustiloxin G (1). Ultrapure water and taxol were used as the negative and positive controls, respectively. All experiments were performed with three replicates.
(Formazan colour is commonly taken as a measure of viable cells.)

Assay [4] concerns HCT116. As to the kind of experiment: Cytotoxicity, MTT assay, HCT116. The following applies: colon cancer cells, 24 h treatment, absorbance 570 nm, three replicates. The format is cell-based, human. The procedure: as §4
In assay [5] the test system is rice seedlings. As to the kind of experiment: Abnormal swelling of roots and germs of rice seedlings. On the set-up: species or system Oryza sativa. The note with it: observation in words; Figure 3B shows 200 µg/mL of ustiloxin G, variety Lijiang. The procedure: as §2
The test system of assay [6] is A549. As to the kind of experiment: Cytotoxicity, MTT assay, A549. The format is cell-based, human. The following applies: lung adenocarcinoma cells, 24 h treatment, absorbance 570 nm, three replicates. The procedure:
as §4

Assay [7] concerns BGC-823. The assay can be described thus: Cytotoxicity, MTT assay, BGC-823. The format is cell-based, human. The following applies: gastric cancer cells, 24 h treatment, absorbance 570 nm, three replicates. The procedure: as §4
Assay [8] deals with HepG2. The assay can be described thus: Cytotoxicity, MTT assay, HepG2. The following applies: liver hepatocellular carcinoma cells, 24 h treatment, absorbance 570 nm, three replicates. The format is cell-based, human. On the procedure: as §4

In the case of `O=C(O)CNCP(=O)(O)O` [Glyphosate, N-(phosphonomethyl)glycine, reference compound], the “Inhibition Ratio (%) Seed Radicle Var. Lijiang” value was determined as 36.84 ± 2.91 g % in assay [1] (10 µg/mL); 62.91 ± 5.03 d % in assay [1] (20 µg/mL); 85.08% in assay [1] (50 µg/mL); 93.64 ± 2.66 a % in assay [1] (100 µg/mL); 95.61 ± 2.74 a % in assay [1] (200 µg/mL). For the same molecule, the “Inhibition Ratio (%) Seed Radicle Var. Zhonghua 11” value in assay [1] (10 µg/mL) is recorded as 28.24%; in assay [1] (20 µg/mL) it was 41.52 ± 5.20 e %; in assay [1] (50 µg/mL), 68.88 ± 3.85 c %; in assay [1] (100 µg/mL) it was 81.05 ± 2.04 b %; in assay [1] (200 µg/mL), 87.72%. The “Inhibition Ratio (%) Seed Germ Var. Lijiang” value turned out to be 20.99% in assay [2] (10 µg/mL); 37.82 ± 4.05 e % in assay [2] (20 µg/mL); 59.32 ± 5.06 c % in assay [2] (50 µg/mL); 68.21% in assay [2] (100 µg/mL); 71.36 ± 2.68 a % in assay [2] (200 µg/mL). The “Inhibition Ratio (%) Seed Germ Var. Zhonghua 11” value in assay [2] (10 µg/mL) was 21.16%; in assay [2] (20 µg/mL) it was 29.21%; in assay [2] (50 µg/mL), 35.36%; in assay [2] (100 µg/mL), 57.60 ± 3.44 a %; in assay [2] (200 µg/mL) it was 58.93 ± 6.04 a %.
The term IC50 denotes the concentration that inhibits the measured activity by half. Low values mean higher potency, high ones lower potency. In the case of `CC[C@@]1(C)Oc2cc(c([S+]([O-])C[C@@H](O)C[C@H](N)C(=O)O)cc2O)[C@@H](O)[C@H](NC)C(=O)N[C@@H](C(C)C)C(=O)N[C@@H]1C(=O)NCC(=O)O` (stereo partly shown) [Ustiloxin A (2), ustiloxin A], the IC50 in assay [3] was over 50 µM; in assay [4], over 50 µM; in assay [6], 3.12 µM; in assay [7], 2.66 µM; in assay [8], over 50 µM. Besides, the “abnormal swelling of the roots and germs of rice seedlings” value in assay [5] was “abnormal swelling”. Besides, the “Inhibition Ratio (%) Seed Radicle Var. Lijiang” value in assay [1] (10 µg/mL) was 17.83%; in assay [1] (20 µg/mL) it was 43.57 ± 0.61 f %; in assay [1] (50 µg/mL), 87.38 ± 0.79 b %; in assay [1] (100 µg/mL), 94.53 ± 0.36 a %; in assay [1] (200 µg/mL), 96.64 ± 0.36 a %. Besides, the “Inhibition Ratio (%) Seed Radicle Var. Zhonghua 11” value came out at 12.27 ± 6.71 l % in assay [1] (10 µg/mL); 56.16 ± 2.30 d % in assay [1] (20 µg/mL); 89.14 ± 4.38 a % in assay [1] (50 µg/mL); 93.72 ± 0.54 a % in assay [1] (100 µg/mL); 95.29 ± 1.63 a % in assay [1] (200 µg/mL). The “Inhibition Ratio (%) Seed Germ Var. Lijiang” value in assay [2] (10 µg/mL) came to 11.38%; in assay [2] (20 µg/mL), 18.00%; in assay [2] (50 µg/mL) it was 39.01 ± 6.84 e %; in assay [2] (100 µg/mL) it was 50.59 ± 6.36 d %; in assay [2] (200 µg/mL), 60.27%. The “Inhibition Ratio (%) Seed Germ Var. Zhonghua 11” value in assay [2] (10 µg/mL) was determined as 13.25%; in assay [2] (20 µg/mL) it was 26.59%; in assay [2] (50 µg/mL), 42.04%; in assay [2] (100 µg/mL), 45.47%; in assay [2] (200 µg/mL) it was 52.33%.
Turning to `CC[C@@]1(C)Oc2cc(ccc2O)[C@@H](O)[C@H](NC)C(=O)N[C@@H](C(C)C)C(=O)N[C@@H]1C(=O)NCC(=O)O` [Ustiloxin D (4), ustiloxin D], the IC50 in assay [3], in assay [4], in assay [7] and in assay [8] was over 50 µM throughout. Moreover, the “Inhibition Ratio (%) Seed Radicle Var. Lijiang” value in assay [1] (10 µg/mL) turned out to be 4.43 ± 5.47 l %; in assay [1] (20 µg/mL) it was 5.42 ± 3.45 l %; in assay [1] (50 µg/mL) it was 11.89%; in assay [1] (100 µg/mL) it was 79.92 ± 6.26 c %; in assay [1] (200 µg/mL), 94.92 ± 0.79 a %. The “Inhibition Ratio (%) Seed Radicle Var. Zhonghua 11” value turned out to be 13.55% in assay [1] (10 µg/mL); 23.31% in assay [1] (20 µg/mL); 41.47 ± 4.88 e % in assay [1] (50 µg/mL); 90.79 ± 0.94 a % in assay [1] (100 µg/mL); 93.90 ± 2.11 a % in assay [1] (200 µg/mL). Moreover, the “Inhibition Ratio (%) Seed Germ Var. Lijiang” value was 10.73% in assay [2] (10 µg/mL); 11.67% in assay [2] (20 µg/mL); 11.87% in assay [2] (50 µg/mL); 19.92% in assay [2] (100 µg/mL); 38.76 ± 5.68 e % in assay [2] (200 µg/mL). The “Inhibition Ratio (%) Seed Germ Var. Zhonghua 11” value in assay [2] (10 µg/mL) turned out to be 10.98%; in assay [2] (20 µg/mL) it was 12.28%; in assay [2] (50 µg/mL) it was 16.19%; in assay [2] (100 µg/mL), 25.48%; in assay [2] (200 µg/mL), 31.86%.
With `CC[C@@]1(C)Oc2cc(ccc2O)[C@@H](O)[C@H](NC)C(=O)N[C@@H](C)C(=O)N[C@@H]1C(=O)NCC(=O)O` [Ustiloxin F (5), ustiloxin F], the IC50 in assay [3], in assay [4], in assay [7] and in assay [8] was over 50 µM in each case. Further, the “Inhibition Ratio (%) Seed Radicle Var. Lijiang” value in assay [1] (10 µg/mL) came to 5.07 ± 4.95 l %; in assay [1] (20 µg/mL) it was 8.97%; in assay [1] (50 µg/mL), 22.17%; in assay [1] (100 µg/mL), 26.72 ± 5.84 h %; in assay [1] (200 µg/mL), 38.25%. The “Inhibition Ratio (%) Seed Radicle Var. Zhonghua 11” value came to 0.75% in assay [1] (10 µg/mL); 9.59 ± 3.80 l % in assay [1] (20 µg/mL); 16.51% in assay [1] (50 µg/mL); 23.78% in assay [1] (100 µg/mL); 36.83% in assay [1] (200 µg/mL). Further, the “Inhibition Ratio (%) Seed Germ Var. Lijiang” value in assay [2] (10 µg/mL) worked out at 7.07%; in assay [2] (20 µg/mL), 7.90 ± 4.3 k1%; in assay [2] (50 µg/mL), 9.14%; in assay [2] (100 µg/mL) it was 15.16%; in assay [2] (200 µg/mL), 24.57%. Besides, the “Inhibition Ratio (%) Seed Germ Var. Zhonghua 11” value in assay [2] (10 µg/mL) is 1.89 ± 4.86 p %; in assay [2] (20 µg/mL), 9.36%; in assay [2] (50 µg/mL) it was 14.97%; in assay [2] (100 µg/mL) it was 17.77%; in assay [2] (200 µg/mL), 18.71%.
